Biological target: T1, P-selectin (Homo sapiens, UniProt P16109)
T1 sequence (P16109 whole entry): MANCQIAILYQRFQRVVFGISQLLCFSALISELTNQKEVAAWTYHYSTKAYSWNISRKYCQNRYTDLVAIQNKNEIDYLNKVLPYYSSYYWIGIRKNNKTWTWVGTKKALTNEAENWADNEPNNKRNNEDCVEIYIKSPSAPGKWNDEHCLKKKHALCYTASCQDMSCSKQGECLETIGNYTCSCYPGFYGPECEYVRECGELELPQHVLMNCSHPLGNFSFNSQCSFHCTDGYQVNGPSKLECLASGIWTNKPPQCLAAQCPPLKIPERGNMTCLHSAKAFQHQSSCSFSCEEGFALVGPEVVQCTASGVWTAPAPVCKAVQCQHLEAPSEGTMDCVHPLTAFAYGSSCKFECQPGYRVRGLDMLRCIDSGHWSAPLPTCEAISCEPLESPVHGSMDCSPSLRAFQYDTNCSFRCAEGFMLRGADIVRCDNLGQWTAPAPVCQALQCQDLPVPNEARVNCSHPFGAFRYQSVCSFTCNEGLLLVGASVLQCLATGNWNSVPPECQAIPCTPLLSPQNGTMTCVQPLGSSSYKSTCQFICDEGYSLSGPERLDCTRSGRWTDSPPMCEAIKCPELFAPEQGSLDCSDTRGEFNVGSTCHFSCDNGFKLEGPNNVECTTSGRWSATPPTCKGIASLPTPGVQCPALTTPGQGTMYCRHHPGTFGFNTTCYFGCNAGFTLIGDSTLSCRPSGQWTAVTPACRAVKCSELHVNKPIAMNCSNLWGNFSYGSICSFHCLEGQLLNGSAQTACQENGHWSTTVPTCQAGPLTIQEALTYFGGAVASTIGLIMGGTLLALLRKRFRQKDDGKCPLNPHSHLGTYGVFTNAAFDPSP
Test: Blocking activity on Selectin P ligand binding

CC(=O)N[C@H]1[C@H]([C@H](O)[C@H](O)CO)O[C@@](O[C@H]2[C@@H](O)[C@@H](CO)O[C@@H](O[C@@H]([C@H](O[C@@H]3O[C@@H](C)[C@@H](O)[C@@H](O)[C@@H]3O)[C@H](C=O)NC(C)=O)[C@H](O)CO)[C@@H]2O)(C(=O)O)C[C@@H]1O [SIALYL LEWIS X]
IC50: > 1 mM

— ChEMBL document CHEMBL1129394, “Studies on selectin blocker. 3. Investigation of the carbohydrate ligand sialyl Lewis X recognition site of P-selectin” (J Med Chem, 1996)
